Data on one compound can be found in patent US7371536B2, “Methods for transporting vitamin C” (priority 1999, dated 2008).

Structures are written as SMILES.

What all share (assay type): cell-based
The target of one experiment is T1, human SVCT1 (Homo sapiens, UniProt Q9UHI7).
T1 construct: expressed in transfected cells; host or cells: Xenopus laevis oocytes injected with cRNA (vector pTLN2)
The experiment in a line: Two-microelectrode voltage-clamp of Xenopus oocytes expressing human SVCT1. On the procedure:
(§1) Functional characterization in Xenopus oocytes—SVCT1 and SVCT2 cDNAs were subcloned into the pTLN2 vector (to improve functional expression in oocytes) and used for cRNA synthesis in vitro using the MEGAscript kit and T7 RNA polymerase (from Ambion). Oocytes were isolated from Xenopus laevis, treated with collagenase A and maintained at 18° C. in modified Barths' medium. Oocytes were injected with 15 ng SVCT1 or SVCT2 cRNA or water only. The radiotracer uptake and voltage-clamp experiments described below were conducted 2-5 days post-injection in standard medium of composition 100 mM NaCl, 2 mM KCl, 1 mM CaCl2, 1 mM MgCl2, and 10 mM HEPES (buffered to pH 7.5 with Tris base). For low-Na^+ or Na^+-free media, NaCl was replaced with choline chloride. For pH-dependence experiments, Na^+ media were buffered to between pH 5.5 and pH 8.0 using 0-5 mM MES, 0-5 mM HEPES and 0-5 mM Tris base. L-Ascorbic acid-containing solutions were always freshly prepared and used immediately. Radiotracer uptake was determined by incubating 8-12 oocytes for 30 min (within the time-course of linear uptake) in standard Na^+, low-Na^+ or Na^+-free media with 10-500 μM L-[1-^14C]ascorbic acid (final specific activity ≈0.3 GBq/mmol). Oocytes were solubilized with 10% SDS and carbon-14 content measured by liquid scintillation counting. A two-microelectrode voltage-clamp was used to measure currents associated with SVCT1 expressed in oocytes. Oocytes were superfused at 22° C. in standard Na^+ medium and clamped at −50 mV. Current was continuously monitored by sampling at 1 Hz. Test solutions were always washed out with substrate-free, Na^+-free medium at pH 7.5 for several minutes. Once again, saturation kinetics data were fit to a modified Hill equation in which I and Imax were replaced by uptake V and maximal velocity Vmax for analysis of radiotracer uptake data.

The target in a further experiment is T2, human SVCT2 (Homo sapiens, UniProt Q9UGH3, A167T).
T2 construct: expressed in transfected cells; host or cells: Xenopus laevis oocytes injected with cRNA (vector pTLN2)
Put plainly: L-[14C]ascorbic acid radiotracer uptake in Xenopus oocytes expressing human SVCT2. On the procedure: as §1

The target in a further experiment is T3, rat SVCT2 (Rattus norvegicus, UniProt Q9WTW8).
T3 construct: expressed in transfected cells; host or cells: Xenopus laevis oocytes injected with cRNA (vector pTLN2)
The experiment in a line: Two-microelectrode voltage-clamp of Xenopus oocytes expressing rat SVCT2. The settings on record: oocytes expressing SVCT2, in the presence of Na^+. On the procedure:
Rat SVCT1 and SVCT2 clones were obtained by isolating SVCT1 cDNA from rat kidney by expression cloning as described in Hediger et al., Methods Enzymol. 296:17-52 (1998). The SVCT2 cDNA was subsequently isolated by PCR-based homology screening of a rat brain cDNA library. A 2.5-kb rabbit cDNA with 96% identity to residues 96-505 of the rat SVCT2 was obtained by RT-PCR. Radiotracer and voltage-clamp experiments were performed (at 22° C.) in Xenopus oocytes two to seven days after injection with ˜25 ng of SVCT1 or SVCT2 cRNA synthesized in vitro. Radiotracer uptake was determined by incubating 6-10 oocytes for 30 or 60 min in standard 100 mM Na^+ or Na^+-free media with 10-600 μM L-[^14C]ascorbic acid. […]
Radiotracer uptake was determined by incubating 6-10 oocytes for 30 or 60 min in standard Na^+ or Na^+-free media (at 22° C.) with 10-600 μM L-[1-^14C]ascorbic acid (final specific activity 0.3 GBq/mmol). Oocytes were solubilized with 10% SDS and [^14C]-content was measured by liquid scintillation counting. […] Steady-state data (obtained by averaging the points over the final 16.7 ms at each Vm step when step-changes were applied) were fitted to equation (1) below, for which I is the evoked current (i.e., the difference in steady-state current measured in the presence and absence of substrate), Imax the derived current maximum, S the concentration of substrate S (Na^+ or L-ascorbic acid), […]

T1 sequence (Q9UHI7 whole entry): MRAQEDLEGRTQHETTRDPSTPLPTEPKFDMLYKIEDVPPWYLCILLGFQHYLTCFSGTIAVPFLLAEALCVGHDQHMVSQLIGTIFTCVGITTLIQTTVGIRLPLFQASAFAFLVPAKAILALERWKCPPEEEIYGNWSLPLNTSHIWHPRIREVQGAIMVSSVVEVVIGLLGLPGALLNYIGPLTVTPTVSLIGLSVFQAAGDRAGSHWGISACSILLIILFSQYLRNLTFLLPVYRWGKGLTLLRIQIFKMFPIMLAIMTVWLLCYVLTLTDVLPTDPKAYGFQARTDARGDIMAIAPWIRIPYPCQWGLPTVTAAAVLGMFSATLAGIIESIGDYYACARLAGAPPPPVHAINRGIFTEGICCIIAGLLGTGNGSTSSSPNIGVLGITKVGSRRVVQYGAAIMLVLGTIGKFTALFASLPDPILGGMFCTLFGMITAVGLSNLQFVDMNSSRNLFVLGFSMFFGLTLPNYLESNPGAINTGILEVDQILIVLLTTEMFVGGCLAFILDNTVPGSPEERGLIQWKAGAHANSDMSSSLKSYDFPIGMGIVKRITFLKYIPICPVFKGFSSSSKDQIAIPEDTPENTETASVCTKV
T2 sequence (Q9UGH3 whole entry A167T): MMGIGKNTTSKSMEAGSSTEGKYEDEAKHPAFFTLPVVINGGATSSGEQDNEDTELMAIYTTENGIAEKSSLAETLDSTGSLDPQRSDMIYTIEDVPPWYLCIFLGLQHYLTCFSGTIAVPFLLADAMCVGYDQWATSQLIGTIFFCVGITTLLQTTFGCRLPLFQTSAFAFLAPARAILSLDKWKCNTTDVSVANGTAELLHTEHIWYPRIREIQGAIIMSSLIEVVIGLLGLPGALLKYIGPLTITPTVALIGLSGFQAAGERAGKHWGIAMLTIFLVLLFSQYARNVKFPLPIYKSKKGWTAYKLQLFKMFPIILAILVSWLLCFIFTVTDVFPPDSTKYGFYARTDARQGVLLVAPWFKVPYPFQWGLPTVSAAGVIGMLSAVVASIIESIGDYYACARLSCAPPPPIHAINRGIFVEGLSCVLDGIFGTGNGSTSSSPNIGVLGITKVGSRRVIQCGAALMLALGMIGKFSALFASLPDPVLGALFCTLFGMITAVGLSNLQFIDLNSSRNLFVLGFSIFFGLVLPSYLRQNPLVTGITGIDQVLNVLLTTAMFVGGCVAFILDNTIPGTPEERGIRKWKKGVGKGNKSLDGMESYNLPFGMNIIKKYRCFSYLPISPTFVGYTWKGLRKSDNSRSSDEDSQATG
T3 sequence (Q9WTW8 whole entry): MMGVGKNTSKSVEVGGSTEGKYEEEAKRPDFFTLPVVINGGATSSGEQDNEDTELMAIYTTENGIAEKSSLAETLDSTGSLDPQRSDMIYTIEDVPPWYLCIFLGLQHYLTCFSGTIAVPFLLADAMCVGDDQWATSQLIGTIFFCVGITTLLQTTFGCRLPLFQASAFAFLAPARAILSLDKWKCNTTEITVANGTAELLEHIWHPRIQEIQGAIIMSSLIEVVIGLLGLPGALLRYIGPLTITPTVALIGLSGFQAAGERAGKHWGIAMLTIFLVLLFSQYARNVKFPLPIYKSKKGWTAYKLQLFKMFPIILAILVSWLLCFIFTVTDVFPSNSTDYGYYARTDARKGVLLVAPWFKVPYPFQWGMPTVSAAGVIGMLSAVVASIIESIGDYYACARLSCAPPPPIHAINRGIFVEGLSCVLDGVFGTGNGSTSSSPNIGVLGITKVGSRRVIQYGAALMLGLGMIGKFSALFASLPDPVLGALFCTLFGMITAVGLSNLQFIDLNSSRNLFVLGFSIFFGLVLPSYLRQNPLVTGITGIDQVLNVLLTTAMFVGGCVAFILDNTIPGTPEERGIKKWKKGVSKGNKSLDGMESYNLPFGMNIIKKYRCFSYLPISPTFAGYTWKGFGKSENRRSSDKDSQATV

Take `O=C1O[C@H]([C@@H](O)CO)C(O)=C1O` [L-ascorbic acid]: the “reduction in current at pH 5.5 compared with pH 7.5” value on human SVCT1 (500 μM L-ascorbic acid, −50 mV) was > 60%. The L-ascorbic acid-evoked current on human SVCT1 (500 μM, −50 mV, mean±SEM from eight oocytes) is recorded as −114±20 nA. The entries for the “L-ascorbic acid-evoked reversible inward currents” value on human SVCT1 (in the presence of extracellular Na^+) and on rat SVCT2 were “up to −150 nA” and “up to −10 nA”, respectively. At human SVCT1 (−50 mV, 100 mM Na^+, mean±propagated SEM from 5 oocytes), the “K0.5 based on evoked currents” value is 54 ± 10 µM. On human SVCT2, the “stimulation of uptake compared with control oocytes” value worked out at 15 fold. Further, the “uptake of L-[14C]ascorbic acid” value on human SVCT2 was determined as 1.2±0.1 pmol/min per oocyte. The “K0.5 of L-[14C]ascorbic acid transport” value at human SVCT2 (radiotracer uptake, FIG. 10) was 65 µM. For the same compound, the “inhibition of the uptake of 100 μM L-[14C]ascorbic acid (in words)” value on human SVCT2 (saturating concentration) was “inhibited”.
